pIC50: −log10 of the molar value.
System: IGROV1 complex spheroids (HUVEC, MSC), viability % test/control
Experiment: Anticancer human tumor IGROV1 cell line growth inhibition [GQUAD];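 also: spheroids exposed to compounds for 7 days before readout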;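 as to viability, T/C: 100% = DMSO vehicle control viability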
Conditions: for pIC50: curve of first compound; for viability, T/C: stronger effect = lower value
How it was run: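 Viability of tumor cells grown as complex spheroids with endothelial and stromal cells, exposed to drug combinations. Top concentration at or near clinical Cmax (else 10 microM), diluted in half-log increments.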

[1] = second compound 0.0316 µM, first compound 0.0316 µM
[2] = second compound 0.0316 µM, first compound 0.316 µM
[3] = second compound 0.1 µM, first compound 0.0316 µM
[4] = second compound 0.1 µM, first compound 0.316 µM
[5] = second compound 0.316 µM, first compound 0.0316 µM
[6] = second compound 0.316 µM, first compound 0.316 µM
[7] = second compound 1 µM, first compound 0.0316 µM
[8] = second compound 1 µM, first compound 0.316 µM
[9] = second compound 3.16 µM, first compound 0.0316 µM
[10] = second compound 3.16 µM, first compound 0.316 µM
[11] = second compound 10 µM, first compound 0.0316 µM
[12] = second compound 10 µM, first compound 0.316 µM
[13] = second compound 0.0316 µM, first compound 0.1 µM
[14] = second compound 0.0316 µM, first compound 1 µM
[15] = second compound 0.0316 µM, first compound 3.16 µM
[16] = second compound 0.0316 µM, first compound 10 µM
[17] = second compound 0.1 µM, first compound 0.1 µM
[18] = second compound 0.1 µM, first compound 1 µM
[19] = second compound 0.1 µM, first compound 3.16 µM
[20] = second compound 0.1 µM, first compound 10 µM
[21] = second compound 0.316 µM, first compound 0.1 µM
[22] = second compound 0.316 µM, first compound 1 µM
[23] = second compound 0.316 µM, first compound 3.16 µM
[24] = second compound 0.316 µM, first compound 10 µM
[25] = second compound 1 µM, first compound 0.1 µM
[26] = second compound 1 µM, first compound 1 µM
[27] = second compound 1 µM, first compound 3.16 µM
[28] = second compound 1 µM, first compound 10 µM
[29] = second compound 3.16 µM, first compound 0.1 µM
[30] = second compound 3.16 µM, first compound 1 µM
[31] = second compound 3.16 µM, first compound 3.16 µM
[32] = second compound 3.16 µM, first compound 10 µM
[33] = second compound 10 µM, first compound 0.1 µM
[34] = second compound 10 µM, first compound 1 µM
[35] = second compound 10 µM, first compound 3.16 µM
[36] = second compound 10 µM, first compound 10 µM

CC[C@@]1(O)C(=O)OCc2c1cc1n(c2=O)Cc2cc3c(CN(C)C)c(O)ccc3nc2-1 + Cc1[nH]c2ccc(F)cc2c1-c1nc2c3cccnc3c3ncccc3c2[nH]1 gave a pIC50 (second compound 0.0316 µM) of 7.58, a pIC50 (second compound 0.1 µM) of 7.64 and a pIC50 (second compound 0.316 µM) of 8.04. It also gave a pIC50 (second compound 1 µM) of over 9.00, a pIC50 (second compound 3.16 µM) of over 9.00 and a pIC50 (second compound 10 µM) of over 9.00. It also gave a viability, T/C (second compound 0.0316 µM, first compound 0.000999 µM) of 99.8%, a viability, T/C (second compound 0.0316 µM, first compound 0.00316 µM) of 73.2% and a viability, T/C (second compound 0.0316 µM, first compound 0.00999 µM) of 92.3%. It also gave a viability, T/C [1] of 42.7%, a viability, T/C (second compound 0.0316 µM, first compound 0.0999 µM) of 10.9% and a viability, T/C [2] of 10.8%. It also gave a viability, T/C (second compound 0.1 µM, first compound 0.000999 µM) of 96.9%, a viability, T/C (second compound 0.1 µM, first compound 0.00316 µM) of 77.7% and a viability, T/C (second compound 0.1 µM, first compound 0.00999 µM) of 94.9%. It also gave a viability, T/C [3] of 35%, a viability, T/C (second compound 0.1 µM, first compound 0.0999 µM) of 10.7% and a viability, T/C [4] of 11.1%. The viability, T/C (second compound 0.316 µM, first compound 0.000999 µM) was 93.1%, the viability, T/C (second compound 0.316 µM, first compound 0.00316 µM) was 58.5% and the viability, T/C (second compound 0.316 µM, first compound 0.00999 µM) was 56.9%. It also gave a viability, T/C [5] of 34.6%, a viability, T/C (second compound 0.316 µM, first compound 0.0999 µM) of 9.45% and a viability, T/C [6] of 10.2%. For the same compound, the viability, T/C (second compound 1 µM, first compound 0.000999 µM) was 4.53%, the viability, T/C (second compound 1 µM, first compound 0.00316 µM) was 5.2% and the viability, T/C (second compound 1 µM, first compound 0.00999 µM) was 3.92%. The viability, T/C [7] was 4.65%, the viability, T/C (second compound 1 µM, first compound 0.0999 µM) was 5.01% and the viability, T/C [8] was 4.15%. The viability, T/C (second compound 3.16 µM, first compound 0.000999 µM) was 4.32%, the viability, T/C (second compound 3.16 µM, first compound 0.00316 µM) was 4.59% and the viability, T/C (second compound 3.16 µM, first compound 0.00999 µM) was 4.67%. The viability, T/C [9] was 4.52%, the viability, T/C (second compound 3.16 µM, first compound 0.0999 µM) was 4.31% and the viability, T/C [10] was 2.77%. It also gave a viability, T/C (second compound 10 µM, first compound 0.000999 µM) of 4.73%, a viability, T/C (second compound 10 µM, first compound 0.00316 µM) of 3.46% and a viability, T/C (second compound 10 µM, first compound 0.00999 µM) of 4.25%. For the same compound, the viability, T/C [11] was 4.75%, the viability, T/C (second compound 10 µM, first compound 0.0999 µM) was 4.66% and the viability, T/C [12] was 3.29%.

COc1cc(C2c3cc4c(cc3C(OC3OC5COC(C)OC5C(O)C3O)C3COC(=O)C23)OCO4)cc(OC)c1O (stereo not drawn) + Cc1[nH]c2ccc(F)cc2c1-c1nc2c3cccnc3c3ncccc3c2[nH]1 was tested, and the pIC50 (second compound 0.0316 µM) was 7.00, the pIC50 (second compound 0.1 µM) was 6.96 and the pIC50 (second compound 0.316 µM) was 7.12. It also gave a pIC50 (second compound 1 µM) of over 7.50, a pIC50 (second compound 3.16 µM) of over 7.50 and a pIC50 (second compound 10 µM) of over 7.50. The viability, T/C [1] was 87.7%, the viability, T/C [13] was 49.2% and the viability, T/C [2] was 26.8%. The viability, T/C [14] was 9.94%, the viability, T/C [15] was 10.6% and the viability, T/C [16] was 5.84%. The viability, T/C [3] was 89.3%, the viability, T/C [17] was 52.3% and the viability, T/C [4] was 25.4%. For the same compound, the viability, T/C [18] was 12%, the viability, T/C [19] was 9.69% and the viability, T/C [20] was 6.24%. It also gave a viability, T/C [5] of 68.3%, a viability, T/C [21] of 44% and a viability, T/C [6] of 23.7%. It also gave a viability, T/C [22] of 11.6%, a viability, T/C [23] of 7.51% and a viability, T/C [24] of 4.85%. The viability, T/C [7] was 4.67%, the viability, T/C [25] was 4.98% and the viability, T/C [8] was 4.59%. It also gave a viability, T/C [26] of 5.09%, a viability, T/C [27] of 4.85% and a viability, T/C [28] of 3.15%. It also gave a viability, T/C [9] of 4.03%, a viability, T/C [29] of 5.21% and a viability, T/C [10] of 3.82%. For the same compound, the viability, T/C [30] was 5.26%, the viability, T/C [31] was 4.55% and the viability, T/C [32] was 3.18%. It also gave a viability, T/C [11] of 4.92%, a viability, T/C [33] of 4.45% and a viability, T/C [12] of 4.88%. The viability, T/C [34] was 4.78%, the viability, T/C [35] was 4.32% and the viability, T/C [36] was 4.34%.

COc1cccc2c1C(=O)c1c(O)c3c(c(O)c1C2=O)CC(O)(C(=O)CO)CC3OC1CC(N)C(O)C(C)O1 (stereo not drawn) + Cc1[nH]c2ccc(F)cc2c1-c1nc2c3cccnc3c3ncccc3c2[nH]1 showed a pIC50 (second compound 0.0316 µM) of 7.24, a pIC50 (second compound 0.1 µM) of 7.34 and a pIC50 (second compound 0.316 µM) of over 7.50. For the same compound, the pIC50 (second compound 1 µM) was over 7.50, the pIC50 (second compound 3.16 µM) was over 7.50 and the pIC50 (second compound 10 µM) was over 7.50. The viability, T/C [1] was 77.6%, the viability, T/C [13] was 24.5% and the viability, T/C [2] was 9.18%. It also gave a viability, T/C [14] of 3.35%, a viability, T/C [15] of 0.15% and a viability, T/C [16] of 0.53%. The viability, T/C [3] was 62.3%, the viability, T/C [17] was 23.6% and the viability, T/C [4] was 10.5%. It also gave a viability, T/C [18] of 4.39%, a viability, T/C [19] of 0.11% and a viability, T/C [20] of 0.5%. For the same compound, the viability, T/C [5] was 34.7%, the viability, T/C [21] was 21.4% and the viability, T/C [6] was 7.11%. For the same compound, the viability, T/C [22] was 4.13%, the viability, T/C [23] was 0.18% and the viability, T/C [24] was 0.43%. The viability, T/C [7] was 4.23%, the viability, T/C [25] was 5.09% and the viability, T/C [8] was 3.51%. The viability, T/C [26] was 1.63%, the viability, T/C [27] was 0.1% and the viability, T/C [28] was 0.52%. It also gave a viability, T/C [9] of 3.48%, a viability, T/C [29] of 5.09% and a viability, T/C [10] of 3.34%. For the same compound, the viability, T/C [30] was 1.41%, the viability, T/C [31] was 0.08% and the viability, T/C [32] was 0.36%. The viability, T/C [11] was 4.02%, the viability, T/C [33] was 3.99% and the viability, T/C [12] was 2.84%. It also gave a viability, T/C [34] of 1.32%, a viability, T/C [35] of 0.18% and a viability, T/C [36] of 0.42%.

O=c1[nH]cc(F)c(=O)[nH]1 + Cc1[nH]c2ccc(F)cc2c1-c1nc2c3cccnc3c3ncccc3c2[nH]1 gave a pIC50 (second compound 0.0316 µM) of 5.17, a pIC50 (second compound 0.1 µM) of 5.26 and a pIC50 (second compound 0.316 µM) of 5.40. It also gave a pIC50 (second compound 1 µM) of over 7.50, a pIC50 (second compound 3.16 µM) of over 7.50 and a pIC50 (second compound 10 µM) of over 7.50. It also gave a viability, T/C [1] of 104%, a viability, T/C [13] of 83.6% and a viability, T/C [2] of 103%. It also gave a viability, T/C [14] of 80.3%, a viability, T/C [15] of 82.6% and a viability, T/C [16] of 34.5%. It also gave a viability, T/C [3] of 96.1%, a viability, T/C [17] of 104% and a viability, T/C [4] of 84%. For the same compound, the viability, T/C [18] was 69.5%, the viability, T/C [19] was 80.8% and the viability, T/C [20] was 27.8%. It also gave a viability, T/C [5] of 79.6%, a viability, T/C [21] of 67.5% and a viability, T/C [6] of 77.1%. It also gave a viability, T/C [22] of 70.8%, a viability, T/C [23] of 55.4% and a viability, T/C [24] of 24.3%. For the same compound, the viability, T/C [7] was 5.37%, the viability, T/C [25] was 4.95% and the viability, T/C [8] was 4.49%. The viability, T/C [26] was 4.87%, the viability, T/C [27] was 5.05% and the viability, T/C [28] was 5.26%. The viability, T/C [9] was 4.5%, the viability, T/C [29] was 4.46% and the viability, T/C [10] was 5.38%. For the same compound, the viability, T/C [30] was 4.48%, the viability, T/C [31] was 5.61% and the viability, T/C [32] was 4.44%. For the same compound, the viability, T/C [11] was 4.32%, the viability, T/C [33] was 4.75% and the viability, T/C [12] was 4.71%. For the same compound, the viability, T/C [34] was 4.66%, the viability, T/C [35] was 4.72% and the viability, T/C [36] was 5.12%.

From PubChem BioAssay AID2060486 (Molecular Pharmacology Branch, DTP, NCI, 2025)
